Measured values taken from article PMC5424110, “Preclinical anti-arthritic study and pharmacokinetic properties of a potent histone deacetylase inhibitor MPT0G009” (Cell Death & Disease, 2014).
“Also recorded” adds a separate entry of the source.

Tests used:
recombinant HDAC1 = biological target: T1, recombinant HDAC1 (Homo sapiens, UniProt Q13547); assay: Fluorogenic assay kit, recombinant HDAC1 enzyme activity; assay type: biochemical; conditions: mean±S.E.M., three replicate experiments; read-out: IC50 (nM) of HDAC isoforms enzyme, HDAC1
T1 construct: purchased BPS Bioscience Corp. (San Diego, CA, USA)
T1 sequence (Q13547 whole entry, canonical isoform): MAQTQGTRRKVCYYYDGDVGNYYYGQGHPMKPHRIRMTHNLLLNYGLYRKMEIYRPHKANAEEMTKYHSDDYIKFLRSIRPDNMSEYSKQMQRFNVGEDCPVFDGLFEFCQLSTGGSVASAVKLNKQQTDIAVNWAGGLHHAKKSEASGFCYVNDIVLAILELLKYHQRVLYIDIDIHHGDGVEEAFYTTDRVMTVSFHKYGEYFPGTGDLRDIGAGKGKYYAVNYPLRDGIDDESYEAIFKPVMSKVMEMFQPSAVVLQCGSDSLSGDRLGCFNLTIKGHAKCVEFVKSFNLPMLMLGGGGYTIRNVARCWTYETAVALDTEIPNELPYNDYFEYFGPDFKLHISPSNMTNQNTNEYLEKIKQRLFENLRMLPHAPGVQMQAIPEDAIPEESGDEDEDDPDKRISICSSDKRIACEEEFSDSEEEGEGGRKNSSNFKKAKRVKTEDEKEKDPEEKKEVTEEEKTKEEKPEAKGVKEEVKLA
Excerpt: (§1) Using kits that contained different recombinant HDAC isoforms, we evaluated the ability of MPT0G009 to inhibit HDAC-mediated deacetylation of lysine residues on the substrates that were provided. […] Fluorogenic HDAC assay kits were used to assess the ability of HDAC inhibitors to inhibit deacetylation of lysine residues on the substrate by recombinant HDAC1, 2, 3, 4, 6 or 8 according to the manufacturer's instructions.

recombinant HDAC8 = biological target: T2, recombinant HDAC8 (Homo sapiens, UniProt Q9BY41); assay: Fluorogenic assay kit, recombinant HDAC8 enzyme activity; assay type: biochemical; conditions: mean±S.E.M., three replicate experiments; read-out: IC50 (nM) of HDAC isoforms enzyme, DHAC8
T2 construct: purchased BPS Bioscience Corp. (San Diego, CA, USA)
T2 sequence (Q9BY41 whole entry, canonical isoform): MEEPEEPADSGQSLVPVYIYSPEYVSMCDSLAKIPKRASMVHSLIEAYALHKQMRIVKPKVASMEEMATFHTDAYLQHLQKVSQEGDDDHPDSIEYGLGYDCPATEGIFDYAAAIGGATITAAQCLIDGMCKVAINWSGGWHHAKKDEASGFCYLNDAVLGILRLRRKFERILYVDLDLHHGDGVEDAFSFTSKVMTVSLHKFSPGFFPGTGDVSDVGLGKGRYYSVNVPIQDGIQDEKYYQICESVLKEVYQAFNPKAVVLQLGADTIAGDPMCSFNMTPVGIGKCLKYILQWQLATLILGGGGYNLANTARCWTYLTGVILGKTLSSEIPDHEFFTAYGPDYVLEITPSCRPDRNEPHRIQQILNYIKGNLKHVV
Excerpt: as §1

[1] = tested on: RA fibroblast-like synoviocyte (RA-FLS); assay: Inflammatory mediator production by stimulated RA-FLS; assay type: cell-based, human; conditions: MPT0G009 0.1, 1 or 10 μM, SAHA 0.3, 3 or 30 μM
Procedure: (a) Structure of MPT0G009.
These supernatants were then assayed for prostaglandin E2 (PGE2), NO and IL-6.

HIG-82 synoviocytes = assay: Cell proliferation assay (SRB), HIG-82 synoviocytes; assay type: cell-based, rabbit; conditions: 24 or 48 h
CD-1 mice = assay: Determination of the MTD in CD-1 mice; assay type: in vivo; conditions: for Lethality (%): qd × 7; for Change of body weight (%) Day 7 / Change of body weight (%) Day 14 / Change of body weight (%) Day 21: qd × 7, mean±S.E.M.
Procedure: The MTD was determined using CD-1 mice at 8–10 weeks of age by dose ranging from 250 to 1000 mg/kg orally once a day for 1 week and then monitored for another 2 weeks. Each dose was tested on six mice in individual independent experiments. MTD was defined as the highest dose that could be given resulting in no drug-related moribund state or death, while temporary body weight loss was within 20%.

SMILES: COc1ccc(S(=O)(=O)N2CCc3cc(C=CC(=O)NO)ccc32)cc1 [MPT0G009, 3-[1-(4-methoxybenzenesulfonyl)-2,3-dihydro-1H-indol-5-yl]-N-hydroxyacrylamide]
- IC50 (recombinant HDAC1): 4.62 ± 0.81 nM
- IC50 (recombinant HDAC8): 22.5 ± 2.16 nM
- IL-6 production ([1]; IL-1β 10 ng/ml 24 h): inhibited
- PGE2 production ([1]; LPS 25 ng/ml 24 h): inhibited
- anti-proliferative effect (HIG-82 synoviocytes): concentration-dependent anti-proliferative effects
- Lethality (%) (CD-1 mice; 250 mg/kg p.o.): 0%
- Change of body weight (%) Day 7 (CD-1 mice; 250 mg/kg p.o.): +8.7±0.5%
- Change of body weight (%) Day 14 (CD-1 mice; 250 mg/kg p.o.): +17.0±0.4%
- Change of body weight (%) Day 21 (CD-1 mice; 250 mg/kg p.o.): +22.6±0.6%
- Lethality (%) (CD-1 mice; 500 mg/kg p.o.): 0%
- Change of body weight (%) Day 7 (CD-1 mice; 500 mg/kg p.o.): +1.6±0.3%
- Change of body weight (%) Day 14 (CD-1 mice; 500 mg/kg p.o.): +16.5±0.6%
- Change of body weight (%) Day 21 (CD-1 mice; 500 mg/kg p.o.): +24.0±0.9%
- Lethality (%) (CD-1 mice; 1000 mg/kg p.o.): 0%
- Change of body weight (%) Day 7 (CD-1 mice; 1000 mg/kg p.o.): +4.4±0.6%
- Change of body weight (%) Day 14 (CD-1 mice; 1000 mg/kg p.o.): +12.0±0.7%
- Change of body weight (%) Day 21 (CD-1 mice; 1000 mg/kg p.o.): +15.3±0.8%
- adverse effects / tolerability (CD-1 mice; up to 1000 mg/kg/day, daily × 7, within 3 weeks): No significant adverse effects; also recorded: well tolerated and safe
